Results: US11981643B1, “Oxoimidazolidine derivatives as anti-tubercular agents” (priority 2023, dated 2024)
Converted amounts (≈) assume the structure as drawn.

The compounds below were run on MDR strain of MTB (assay: microbe, parasite or virus in culture). Settings: Mycobacterium tuberculosis, 192 h, read-out: Anti-tubercular activity against Mycobacterium tuberculosis, MDR (minimum inhibitory concentration, MIC).
Type: cell-based

| SMILES | MIC |
| --- | --- |
| CN1/C(=C\c2ccc(Br)o2)C(=O)N/C1=N\C(=O)Nc1cccc(F)c1 [Compound 4g, 1-{(2E,5Z)-5-[(5-Bromofuran-2-yl)methylidene]-1-methyl-4-oxoimidazolidin-2-ylidene}-3-(3-fluorophenyl)urea] | 32 µg/mL (≈ 78.6 µM) |
| CN1C(=Cc2ccc(-c3ccccc3[N+](=O)[O-])o2)C(=O)N/C1=N\C(=S)Nc1ccc(F)cc1 (stereo in doubt) [Compound 4v, 1-(4-Fluorophenyl)-3-[(2E,5Z)-1-methyl-5-{[5-(2-nitrophenyl)furan-2-yl]methylidene}-4-oxoimidazolidin-2-ylidene]thiourea] | > 32 µg/mL |
| CN1C(=Cc2ccc([N+](=O)[O-])cc2)C(=O)N/C1=N\C(=S)Nc1cccc(Cl)c1 (stereo in doubt) [Compound 4q, 1-(3-Chlorophenyl)-3-[(2E,5Z)-1-methyl-5-(4-nitrobenzylidene)-4-oxoimidazolidin-2-ylidene]thiourea] | 32 µg/mL (≈ 76.9 µM) |
